Patent US20020169296A1, “Linked, sequence-specific DNA-binding molecules” (priority 2000, published 2002)
Read-outs that look alike come from different tables or passages of the source.

Key:
[1] = biological target: W9 probe (isolated 9 bp AT-tract); test: DNase I footprinting on W9 probe; format: binding; conditions: for Kd: apparent dissociation constant, read-out: Kdapp W9
Description: To target AT-tracts, the principal component of satellite I, III and SARs), a pyrrole pentamer was synthesized by facile solid phase chemistry in which five pyrrole (Py) aromatic amino acid rings are linked covalently by amide bonds (Baird and Dervan, 1996). The resulting compound, termed P7 had the sequence Py-Py-Py-Py-Py-β-Dp (where β=β-alanine and Dp=dimethylaminopropylamide). This compound is expected to bind 7 successive A or T base pairs (Ws) according to the n+1 rule where n is the number of amides (Youngquist and Dervan, 1985). The DNA binding properties of P7 were assessed by DNAse I footprinting experiments using a synthetic probe containing isolated, repeated AT-tracts of 9 Ws (W9, FIG. 2A). By visual inspection, the apparent dissociation constant (Kapp) for P7 was estimated to be approximately 80 nM (Table 3).
were hybridized to obtain the W9 probe, oligomerized by ligation and digested with BamHl and BglII to obtain different tandem repeats. The following oligonucleotides were prepared identically:
(§1) Fragments were purified on low-melt agarose gels and then cloned into a modified pSP64 vector, cut by BamHI and BglII. End-labeling was carried out following digestion with HindIII and a fill-in reaction with Klenow DNA polymerase. The labeled plasmid was cut with PvuII and the target fragments purified from low-melting agarose gels. The 657 bp EcoRl/Hinf1 fragment of the Drosophila histone SAR was cloned into the SmaI site of the modified pSP64 plasmid. This SAR probe was end-labeled following digestion with EcoRl, then cut with ClaI and the resulting 347 bp fragment purified from low-melting agarose gels.
(§2) All reactions were performed in a total volume of 40 μl. A polyamide stock solution or buffer (for reference lanes) was added to an assay buffer containing 20 kcpm radiolabeled DNA, affording final concentrations of 10 mM Tris-HCl (pH 7.4), 10 mM KCl, 10 mM MgCl, 5 mM CaCl2, 0.5 mM EDTA, 0.5 mM EGTA, 1 mM DTT and 0.1% digitonine. The solutions were allowed to equilibrate for at least 2 h at room temperature. Footprinting reactions were initiated by the addition of 2 μl of a DNase stock solution (containing −100 pg DNase I in buffer) and allowed to proceed for 2 min at room temperature. The reactions were stopped by addition of 10 μl of a solution containing 1.25 M NaCl, 100 mM EDTA. Next, 5 μl of a 1% SDS solution was added, followed by 2 μl of a solution containing 1 μg poly(dA-dT), 1 μg salmon sperm DNA and 10 μg glycogen and the DNA was ethanol precipitated (20 min at −20° C.). The reactions were resuspended in 4 μl of 80% formamide loading buffer, denatured 10 min at 85° C., cooled on ice and electrophoresed on 8% polyacrylamide denaturing gels (5% cross-link, 8 M urea) at 30 W for 1 h. The gels were dried and exposed o/n at −70° C.

[2] = test system: Drosophila histone SAR probe (clustered/long AT-tracts); test: DNase I footprinting on SAR probe; format: binding; conditions: for Kd: apparent dissociation constant, SAR probe, read-out: Kdapp SAR
Experimental: Since satellite I is composed of exclusively A and T bases, it constitutes an ‘ideal’ binding substrate for oligopyrroles. But to obtain SAR-specific compounds, molecules are required that preferably bind its clustered, irregularly spaced AT-tracts. Binding studies were carried out with P9, P7 and P13 on the Drosophila histone SAR probe which contains the following clustered/long AT-tracts (W15N3W17N5W16N13W8NW6 where N is any base, see also FIG. 3D). […] The ratio of these two affinities is used (KappW9/KappSAR) as an empirical measure of SAR specificity. For all compounds tested thus far, this value (referred to as SAR preference factor) was around unity (Table 3).
as §1, §2

[3] = test system: Drosophila satellite III chromatin (topoisomerase II cleavage); test: Topoisomerase II cleavage in satellite III of Kc nuclei in Xenopus egg extracts with VM26; format: biochemical
[4] = test system: sperm nuclei (condensation to chromatids); test: Chromosome condensation of sperm nuclei in mitotic Xenopus egg extracts; format: biochemical; conditions: for reversal of condensation inhibition by competitor oligonucleotide: Lex10 1 μM
Description: Mitotic Xenopus egg extracts convert added nuclei and sperm to chromatids in vitro. This chromosome condensation process requires topoisomerase II (Adachi et al., 1991), the protein complex condensin (Hirano T, 1997) and presumably other unidentified activities present in the mitotic extract. First, chromatin is remodeled and nuclei then proceed quite synchronously through a number of morphologically distinguishable steps (Hirano and Mitchison, 1991). Remodeling is morphological manifested by swelling of the nuclei which involves exchange of basic sperm-specific proteins for H2A/H2B and the incorporation of histone B4 (Dimitrov S, 1994).
Pyrrole drugs were added to the extract together with the sperm or after the remodeling step (at 10 minutes) and the extent of condensation was determined after 120 min. At this time point, the conversion of all sperm nuclei to clusters of individual chromatids is complete in the absence of drug (FIG. 8A, control). […] Addition of this compound at 125 to 250 nM (indicated) arrested this process at the so-called early ‘ruffle’ stage (FIG. 8A). These structures retain the swollen sperm shape, but they have peripheral blebs (ruffles) and a slightly heterogeneous interior. At this drug concentration, no chromatids are seen. If the concentration of Lex10 is raised to 500 nM, we observed an even earlier arrest as evidenced by the accumulation of swollen, remodeled sperm-shaped nuclei containing a homogeneous interior and smooth periphery. […] The monomer P7 was also tested but we observed no inhibition with the pyrrole pentamer up to the highest concentration (8 μM) tested. Condensation was inhibited at a ruffle stage with a P9 concentration of 2 μM (not shown).
In the experiment shown in FIG. 8B, Lex10 was added to the extract at a final concentration of 1 μM (several fold above the minimum inhibitory concentration) after which competitor oligonucleotides were added at different stages. Three different oligonucleotides of similar size were used: the SAR oligo contains two large clustered AT-tracts of the SAR probe (W17N5W15), the W9 oligo has a single AT tract of 9 base pairs and the GAGAA oligo harbors 5 tandem GAGAA repeats.
Topoisomerase II inhibition and chromosome assembly were as described previously (Girard et al., 1998, Strick and Laemmli, 1995). Affinity cleavage experiments was performed as described elsewhere (Turner et al., 1997).

Molecule	Kd ([1]; W9 probe) [nM]	Ratio (KappW9/KappSAR, SAR preference factor) [2]	Kd [2] [nM]	stimulation of topoisomerase II cleavage in satellite III [3]	other results
CN(C)CCCNC(=O)CCNC(=O)c1cc(NC(=O)c2cc(NC(=O)c3cc(NC(=O)c4cc(NC(=O)c5cccn5C)cn4C)cn3C)cn2C)cn1C [Compound P7, Py-Py-Py-Py-Py-β-Dp]	~80	2.3	35	massively stimulated	Kd ([1]; W9 probe, listed as P10): 80 nM; concentration inhibiting chromosome condensation (block at ruffle stage) ([4]; 120 min): > 8 µM
CN(C)CCCNC(=O)CCNC(=O)c1cc(NC(=O)c2cc(NC(=O)c3cc(NC(=O)CCNC(=O)c4cc(NC(=O)c5cc(NC(=O)c6cc(NC(=O)CCNC(=O)c7cc(NC(=O)c8cc(NC(=O)c9cccn9C)cn8C)cn7C)cn6C)cn5C)cn4C)cn3C)cn2C)cn1C [Compound P13, PyPyPy-β-PyPyPy-β-PyPyPy-β-Dp]	1	0.8	1.25		ligand concentration giving nearly complete protection (coating) of the W9 probe [1]: ≥ 62.5 nM; GC tolerance / AT-specificity of footprint ([1]; W9 probe, flanking mixed sequences): marked tendency to protect GC base pairs
(Py)3-β-(Py)3-(Ao)3-(Py)5-β-Dp [Lex18]	100	100	1		
(Py)3-β-(Py)3-β-Dp-F* [Compound P9F]	4	4	1		increase of SAR specificity upon fluorescein tagging [2]: about 4 fold
F*-γ-(Py)3-β-(Py)3-β-Dp-Glu-(Ao)3-(Py)5-β-Dp [Lex10F]	20	20	1		reduction of binding affinity upon fluorescein tagging ([1]; versus untagged compound): only a minor reduction in affinity
F*-γ-(Py)5-β-Dp [Compound P7F]	3000	2.5	1200		
F*-γ-(Py)5-β-Dp-Glu-(Ao)3-(Py)5-β-Dp [Lex9F]	2500	25	100		
PyPyPy-β-PyPyPy-β-Dp-E-AoAoAo-PyPyPyPyPy-β-Dp [Lex10]	20		0.28	does not stimulate	affinity for SAR lower than that of MATH20 [2]: approximately 100; concentration at which inhibition of topoisomerase II cleavage occurs abruptly [3]: around 600 nM; inhibition of topoisomerase II cleavage in satellite III ([3]; 1 μM): inhibits cleavage of topoisomerase II completely; concentration giving even earlier arrest (swollen, remodeled sperm-shaped nuclei) [4]: 500 nM; higher concentration than MATH20 for inhibition of condensation [4]: 80 fold; reversal of condensation inhibition by competitor oligonucleotide ([4]; 360 ng of W9 or GAGAA oligo): did not reverse the block; reversal of condensation inhibition by competitor oligonucleotide ([4]; 50 to 100 ng SAR oligo): completely reversed
PyPyPyPyPy-β-Dp-E-AoAoAo-PyPyPyPyPy-β-Dp [Lex9]	3.5	2	1.75	much reduced cleavage stimulation	SAR specificity factor after tagging with fluorescent label ([2]; value of the tagged derivative): 25; inhibition of condensation ([4]; 250 to 500 nM): Little inhibition
